Assay results as given in US20160310621A1, “IMAGING PROBES, FORMULATIONS, AND USES THEREOF” (priority 2015, published 2016).
“Also recorded” adds a separate entry of the source.

Test system: rat model of arthritis (bone uptake)
Assay: PET imaging in rat HKMT/IFA model of arthritis
Assay type: in vivo
Description: Single modality BP imaging probes with ^18F were generated according to the Schemes described in FIGS. 6A-6B and FIG. 7. […] A rat (Lewis rats, 6-12 weeks of age) model of arthritis was generated by subcutaneous injection of heat killed Mycobacterium tuberculosis (strain H37Ra) suspended in incomplete Freund's adjuvant (HKMT/IFA). […] The swelling was easily identifiable by day 16 post injection, but undetectable in the animals on day 7 (FIGS. 12A-12D).
Rats were given a total of about 500 μCi (about 0.5 nmole) of freshly prepared ^18F-RIS-SFB (single modality BP conjugated imaging probe) by i.v. injection. PET imaging was conducted using a GE eXplore Vista small animal PET system.

**Q.** For [18F-].[Na+] [Na^18F], which “time at which increased accumulation in bone is seen by PET” value (RA model rats, post induction) is on record?
**A.** ~18 days

**Q.** What about the “detection of early bone involvement in RA by PET” value (early time point (day 7), before clinical signs) of the same molecule?
**A.** fails to detect the earliest signs of bone involvement in RA; also recorded: does not detect the early bone involvement in RA at day 7
